Like-named read-outs stand apart in the source and are kept apart here.
Key:
22RV1 cells = assay: Cell growth inhibition, 4-day proliferation assay (WST-8); format: cell-based; details: Homo sapiens, 96 h; 22RV1, prostate carcinoma, 4 days
Method in brief: (§1)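 Cells seeded at 2,000-3,000 per well in medium with 10% FBS and treated with serial compound dilutions for 4 days at 37 °C, 5% CO2. Viability by WST-8 (10% v/v, 1-2 h), absorbance at 450 nm, normalised to DMSO; IC50 by four-parameter variable-slope fit.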

HCT116 cells = assay: as above; format: cell-based; details: Homo sapiens, HCT-116, 96 h; HCT116, colorectal carcinoma, 4 days
Method in brief: as §1

LNCaP cells = assay: as above; format: cell-based; details: Homo sapiens, 96 h, prostate carcinoma, 4 days
Method in brief: as §1

ML-2 cells = assay: as above; format: cell-based; details: Homo sapiens, 96 h; ML-2, acute myeloid leukemia, 4 days
Method in brief: as §1

MOLM-13 cells = assay: as above; format: cell-based; details: Homo sapiens, 96 h; MOLM-13, acute myeloid leukemia, 4 days
Method in brief: as §1

MOLM-14 cells = assay: as above; format: cell-based; details: Homo sapiens, 96 h; MOLM-14, acute myeloid leukemia, 4 days
Method in brief: as §1

MV-4;11 cells = assay: as above; format: cell-based; details: Homo sapiens, MV4-11, 96 h, 11, acute biphenotypic B myelomonocytic leukemia, 4 days
Method in brief: as §1

OCI-AML-2 cells = assay: as above; format: cell-based; details: Homo sapiens, OCI-AML2, 96 h; OCI-AML-2, acute myeloid leukemia, 4 days
Method in brief: as §1

OCI-AML-5 cells = assay: as above; format: cell-based; details: Homo sapiens, 96 h; OCI-AML-5, acute myeloid leukemia, 4 days
Method in brief: as §1

RS4;11 cells = assay: as above; format: cell-based; details: Homo sapiens, 96 h; RS4; 11, precursor cell lymphoblastic leukemia, 4 days; read-out: IC50
Method in brief: as §1

SIG-M5 cells = assay: as above; format: cell-based; details: Homo sapiens, 96 h; SIG-M5, acute myeloid leukemia, 4 days
Method in brief: as §1

p53 protein [1] = assay: Western blot analysis in RS4;11 cells, p53; format: cell-based, human; details: 2 hr treatment
Experimental: (§2) RS4;11 cells were treated with Cpd. No. 4 and Cpd. No. 6 (MDM2 degraders) or with Cpd. B and Cpd. C (MDM2 inhibitors) for 2 hr. MDM2 and p53 proteins were probed using specific antibodies. GAPDH was used as the loading control. […] No. 4 and Cpd. No. 6 reduce MDM2 protein and increase p53 protein level, and that Cpd. B and Cpd. C increase MDM2 and p53 protein levels in RS4;11 cells. The structures of Cpd. B (see Compound Example No. 24 of U.S. Pat. No. 8,629,141) and Cpd.

[2] = Pharmacokinetics in mice, oral and IV; format: in vivo; details: for F: PO 50 mg/kg vs IV 10 mg/kg; for AUC: mouse, in vivo
Experimental: The pharmacokinetics of Cpd. Nos. 4 and 6, and Cpd. D were evaluated in mice.

[3] = Separate PK experiment, plasma concentrations after oral dose; format: in vivo; details: mouse, 50 mg/kg, mice
Text: In a separate PK experiment, the plasma concentrations of Cpd.

MDM2 protein [4] = molecular target: T1, MDM2 protein (Homo sapiens, UniProt Q00987); assay: Western blot analysis in RS4;11 cells, MDM2; format: cell-based; parameters: No. 4 and Cpd; No. 6 (MDM2 degraders); endogenous in cells; host or cells: RS4;11; details: 2 hr treatment
T1 sequence (Q00987 whole entry): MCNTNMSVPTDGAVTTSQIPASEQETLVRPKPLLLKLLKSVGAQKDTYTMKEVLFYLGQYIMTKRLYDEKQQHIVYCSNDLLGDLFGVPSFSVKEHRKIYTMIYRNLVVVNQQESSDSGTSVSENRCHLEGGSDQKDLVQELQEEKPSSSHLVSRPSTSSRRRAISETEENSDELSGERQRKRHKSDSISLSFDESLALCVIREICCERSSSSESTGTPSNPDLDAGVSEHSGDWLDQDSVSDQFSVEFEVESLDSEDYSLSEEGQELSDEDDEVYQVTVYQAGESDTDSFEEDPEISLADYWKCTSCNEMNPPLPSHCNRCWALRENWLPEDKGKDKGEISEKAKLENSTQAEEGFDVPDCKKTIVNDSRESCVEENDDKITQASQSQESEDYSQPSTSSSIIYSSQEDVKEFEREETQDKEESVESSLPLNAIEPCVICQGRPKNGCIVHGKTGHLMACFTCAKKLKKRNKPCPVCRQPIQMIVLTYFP
Experimental: as §2

p53 protein [5] = assay: Western blot analysis in 22RV1 cells, p53; format: cell-based, human; details: 2 hr treatment
Experimental: (§3) 22RV1 cells were treated with Cpd. No. 4 and Cpd. D (MDM2 degraders) or with Cpd. A (MDM2 inhibitor) for 2 hr. MDM2 and p53 proteins were probed using specific antibodies. GAPDH was used as the loading control. […] No. 4 and Cpd. D reduce MDM2 protein and increase p53 protein level, and that Cpd. A increases MDM2 and p53 protein levels in 22RV1 cells.

MDM2 protein [6] = molecular target: T1, MDM2 protein; assay: Western blot analysis in 22RV1 cells, MDM2; format: cell-based; parameters: endogenous in cells; details: 2 hr treatment
Experimental: as §3

[7] = read-out: Plasma concentration, Average / Mean
[8] = read-out: Plasma concentration, Mouse 1
[9] = read-out: Plasma concentration, Mouse 2

Row | SMILES | IC50 (22RV1 cells) [nM] | IC50 (HCT116 cells) [nM] | IC50 (LNCaP cells) [nM] | IC50 (ML-2 cells) [nM] | IC50 (MOLM-13 cells) [nM] | IC50 (MOLM-14 cells) [nM] | IC50 (MV-4;11 cells) [nM] | IC50 (OCI-AML-2 cells) [nM] | IC50 (OCI-AML-5 cells) [nM] | IC50 (RS4;11 cells) [nM] | IC50 (SIG-M5 cells) [nM] | F [2] [%] | AUC ([2]; IV, 10 mg/kg) [ng·h/mL] | AUC ([2]; PO, 50 mg/kg) [ng·h/mL] | concentration at 1 h [3, 7] [ng/mL] | concentration at 1 h [3, 8] [ng/mL] | concentration at 1 h [3, 9] [ng/mL] | concentration at 3 h [3, 7] [ng/mL] | concentration at 3 h [3, 8] [ng/mL] | concentration at 3 h [3, 9] [ng/mL] | also measured
1 | O=C1CCC(N2Cc3c(C#CC4CCN(C(=O)C56CCC(NC(=O)[C@@H]7NC8(CCCCC8)[C@@]8(C(=O)Nc9cc(Cl)ccc98)[C@H]7c7cccc(Cl)c7F)(CC5)CC6)CC4)cccc3C2=O)C(=O)N1 (stereo partly drawn) [Cpd. No. 6, (3′R,4′S,5′R)-6″-chloro-4′-(3-chloro-2-fluorophenyl)-N-(4-(4-((2-(2,6-dioxopiperidin-3-yl)-1-oxoisoindolin-4-yl)ethynyl)piperidine-1-carbonyl)bicyclo[2.2.2]octan-1-yl)-2″-oxodispiro[cyclohexane-1,2′-pyrrolidine-3′,3″-indoline]-5′-carboxamide] | 42 | 310 | 13 | 4.9 | 18 | 25 | 6.4 | 69 | 71 | 2.4 | 63 | 5.7 | 154000 | 43500 | 0.42 | 0.576 | 0.257 | 3220 | 3110 | 3330 | p53 protein level (p53 protein [1]): increase; concentration at 6 h [3, 7]: 2380 ng/mL; concentration at 6 h [3, 8]: 2320 ng/mL; concentration at 6 h [3, 9]: 2430 ng/mL; MDM2 protein level (MDM2 protein [4]): reduce
2 | O=C1CCC(N2Cc3c(C#CC4CCN(C(=O)[C@H]5CC[C@H](NC(=O)[C@@H]6NC7(CCCCC7)[C@@]7(C(=O)Nc8cc(Cl)ccc87)[C@H]6c6cccc(Cl)c6F)CC5)CC4)cccc3C2=O)C(=O)N1 (stereo partly drawn) [Cpd. No. 4, (3′R,4′S,5′R)-6″-chloro-4′-(3-chloro-2-fluorophenyl)-N-((1r,4R)-4-(4-((2-(2,6-dioxopiperidin-3-yl)-1-oxoisoindolin-4-yl)ethynyl)piperidine-1-carbonyl)cyclohexyl)-2″-oxodispiro[cyclohexane-1,2′-pyrrolidine-3′,3″-indoline]-5′-carboxamide] | 14 | 86 | 3.2 | 1.2 | 5.1 | 7.8 | 2.3 | 21 | 23 | 0.72 | 21 | 0.93 | 156000 | 7250 | 0.62 | 0.231 | 1.01 | 1320 | 902 | 1730 | p53 protein level (p53 protein [1]): increase; p53 protein level (p53 protein [5]): increase; concentration at 6 h [3, 7]: 338 ng/mL; concentration at 6 h [3, 8]: 231 ng/mL; concentration at 6 h [3, 9]: 446 ng/mL; MDM2 protein level (MDM2 protein [6]): reduce; MDM2 protein level (MDM2 protein [4]): reduce
3 | O=C1CCC(N2Cc3c(C#CC4CCN(C(=O)c5ccc(NC(=O)[C@@H]6NC7(CCCCC7)[C@@]7(C(=O)Nc8cc(Cl)ccc87)[C@H]6c6cccc(Cl)c6F)cc5)CC4)cccc3C2=O)C(=O)N1 (some centres unmarked) [Cpd. D, reference compound] | 45 | 400 | 33 | 11 | 34 | 78 | 10 | 110 | 150 | 2.9 | 110 | 1.27 | 193000 | 12300 | 77.9 | 78 | 77.8 | 624 | 510 | 738 | p53 protein level (p53 protein [5]): increase; concentration at 6 h [3, 7]: 414 ng/mL; concentration at 6 h [3, 8]: 234 ng/mL; concentration at 6 h [3, 9]: 594 ng/mL; MDM2 protein level (MDM2 protein [6]): reduce
